Measured values as given in US10709758B2 (priority 2015, dated 2020).
Residues, ends and D or L forms follow the SMILES beside them.

Assays:
TcdB [1] = tested on: TcdB
TcdB1 = TcdB1 (Clostridioides difficile, UniProt P18177)
CHO-K1 cells = assay type: cell-based
TcdB [2] = target: TcdB (Clostridioides difficile, UniProt P18177); details: cited from earlier work
Chain of TcdB (Clostridioides difficile, UniProt P18177) (P18177 whole entry, looked up): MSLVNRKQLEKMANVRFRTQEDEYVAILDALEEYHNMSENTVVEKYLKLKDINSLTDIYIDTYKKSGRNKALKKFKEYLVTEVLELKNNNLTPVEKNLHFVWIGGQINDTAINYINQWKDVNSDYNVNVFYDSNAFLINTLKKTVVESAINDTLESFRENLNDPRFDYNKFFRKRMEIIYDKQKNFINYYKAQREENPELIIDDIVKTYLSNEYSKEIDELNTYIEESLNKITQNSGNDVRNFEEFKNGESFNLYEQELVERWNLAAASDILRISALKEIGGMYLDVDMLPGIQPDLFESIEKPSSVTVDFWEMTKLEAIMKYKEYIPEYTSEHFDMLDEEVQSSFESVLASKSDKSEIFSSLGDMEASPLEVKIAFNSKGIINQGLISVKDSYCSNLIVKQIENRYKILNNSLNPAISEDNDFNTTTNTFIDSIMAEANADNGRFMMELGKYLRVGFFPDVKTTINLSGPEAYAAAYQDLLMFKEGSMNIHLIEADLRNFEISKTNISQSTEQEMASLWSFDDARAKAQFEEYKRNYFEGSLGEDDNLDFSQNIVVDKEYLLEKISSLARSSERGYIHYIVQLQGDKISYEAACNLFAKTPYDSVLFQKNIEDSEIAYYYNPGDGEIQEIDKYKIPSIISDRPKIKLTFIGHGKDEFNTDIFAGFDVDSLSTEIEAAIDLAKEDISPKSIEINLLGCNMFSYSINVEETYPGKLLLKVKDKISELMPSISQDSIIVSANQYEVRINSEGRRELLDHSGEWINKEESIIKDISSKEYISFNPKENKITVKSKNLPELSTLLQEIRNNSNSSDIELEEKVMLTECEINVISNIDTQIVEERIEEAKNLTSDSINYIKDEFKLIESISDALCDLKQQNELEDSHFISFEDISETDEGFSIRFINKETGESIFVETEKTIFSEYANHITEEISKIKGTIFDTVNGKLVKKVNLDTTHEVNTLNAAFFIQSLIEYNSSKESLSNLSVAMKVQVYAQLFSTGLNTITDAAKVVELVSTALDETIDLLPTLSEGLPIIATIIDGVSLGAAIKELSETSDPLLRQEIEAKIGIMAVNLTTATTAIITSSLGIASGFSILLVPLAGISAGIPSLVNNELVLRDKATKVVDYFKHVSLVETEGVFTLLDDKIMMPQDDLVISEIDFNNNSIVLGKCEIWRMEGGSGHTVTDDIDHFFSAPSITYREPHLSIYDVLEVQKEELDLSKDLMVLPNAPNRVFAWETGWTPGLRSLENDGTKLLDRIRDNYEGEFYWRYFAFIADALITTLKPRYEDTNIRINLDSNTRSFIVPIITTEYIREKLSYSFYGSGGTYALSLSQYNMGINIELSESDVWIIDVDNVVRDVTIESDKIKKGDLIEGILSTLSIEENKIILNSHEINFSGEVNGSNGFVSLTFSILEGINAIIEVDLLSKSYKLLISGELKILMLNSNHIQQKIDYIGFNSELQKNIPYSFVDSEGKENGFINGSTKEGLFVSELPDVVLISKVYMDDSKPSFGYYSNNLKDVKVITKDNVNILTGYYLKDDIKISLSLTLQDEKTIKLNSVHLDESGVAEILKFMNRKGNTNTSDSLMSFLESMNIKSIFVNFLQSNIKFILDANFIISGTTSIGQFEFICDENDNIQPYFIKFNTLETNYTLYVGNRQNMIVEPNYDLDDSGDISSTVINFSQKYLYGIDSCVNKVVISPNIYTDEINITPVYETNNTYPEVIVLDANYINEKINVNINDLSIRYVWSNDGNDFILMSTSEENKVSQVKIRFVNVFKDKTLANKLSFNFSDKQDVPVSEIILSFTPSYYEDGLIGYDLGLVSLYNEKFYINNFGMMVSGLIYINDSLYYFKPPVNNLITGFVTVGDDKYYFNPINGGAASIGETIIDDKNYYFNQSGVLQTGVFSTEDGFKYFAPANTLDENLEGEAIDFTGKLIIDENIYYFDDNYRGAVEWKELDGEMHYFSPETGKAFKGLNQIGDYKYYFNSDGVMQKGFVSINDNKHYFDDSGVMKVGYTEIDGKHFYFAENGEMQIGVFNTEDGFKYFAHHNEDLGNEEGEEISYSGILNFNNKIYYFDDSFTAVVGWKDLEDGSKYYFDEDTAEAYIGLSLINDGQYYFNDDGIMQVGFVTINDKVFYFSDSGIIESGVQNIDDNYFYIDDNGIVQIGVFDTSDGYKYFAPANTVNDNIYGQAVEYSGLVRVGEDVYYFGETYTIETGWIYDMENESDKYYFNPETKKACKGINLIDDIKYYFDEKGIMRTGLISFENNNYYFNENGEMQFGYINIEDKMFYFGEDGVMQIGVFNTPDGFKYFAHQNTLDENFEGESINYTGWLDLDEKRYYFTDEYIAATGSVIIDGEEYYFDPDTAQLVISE

Chain of TcdB1 (P18177 2-2366 limits assumed): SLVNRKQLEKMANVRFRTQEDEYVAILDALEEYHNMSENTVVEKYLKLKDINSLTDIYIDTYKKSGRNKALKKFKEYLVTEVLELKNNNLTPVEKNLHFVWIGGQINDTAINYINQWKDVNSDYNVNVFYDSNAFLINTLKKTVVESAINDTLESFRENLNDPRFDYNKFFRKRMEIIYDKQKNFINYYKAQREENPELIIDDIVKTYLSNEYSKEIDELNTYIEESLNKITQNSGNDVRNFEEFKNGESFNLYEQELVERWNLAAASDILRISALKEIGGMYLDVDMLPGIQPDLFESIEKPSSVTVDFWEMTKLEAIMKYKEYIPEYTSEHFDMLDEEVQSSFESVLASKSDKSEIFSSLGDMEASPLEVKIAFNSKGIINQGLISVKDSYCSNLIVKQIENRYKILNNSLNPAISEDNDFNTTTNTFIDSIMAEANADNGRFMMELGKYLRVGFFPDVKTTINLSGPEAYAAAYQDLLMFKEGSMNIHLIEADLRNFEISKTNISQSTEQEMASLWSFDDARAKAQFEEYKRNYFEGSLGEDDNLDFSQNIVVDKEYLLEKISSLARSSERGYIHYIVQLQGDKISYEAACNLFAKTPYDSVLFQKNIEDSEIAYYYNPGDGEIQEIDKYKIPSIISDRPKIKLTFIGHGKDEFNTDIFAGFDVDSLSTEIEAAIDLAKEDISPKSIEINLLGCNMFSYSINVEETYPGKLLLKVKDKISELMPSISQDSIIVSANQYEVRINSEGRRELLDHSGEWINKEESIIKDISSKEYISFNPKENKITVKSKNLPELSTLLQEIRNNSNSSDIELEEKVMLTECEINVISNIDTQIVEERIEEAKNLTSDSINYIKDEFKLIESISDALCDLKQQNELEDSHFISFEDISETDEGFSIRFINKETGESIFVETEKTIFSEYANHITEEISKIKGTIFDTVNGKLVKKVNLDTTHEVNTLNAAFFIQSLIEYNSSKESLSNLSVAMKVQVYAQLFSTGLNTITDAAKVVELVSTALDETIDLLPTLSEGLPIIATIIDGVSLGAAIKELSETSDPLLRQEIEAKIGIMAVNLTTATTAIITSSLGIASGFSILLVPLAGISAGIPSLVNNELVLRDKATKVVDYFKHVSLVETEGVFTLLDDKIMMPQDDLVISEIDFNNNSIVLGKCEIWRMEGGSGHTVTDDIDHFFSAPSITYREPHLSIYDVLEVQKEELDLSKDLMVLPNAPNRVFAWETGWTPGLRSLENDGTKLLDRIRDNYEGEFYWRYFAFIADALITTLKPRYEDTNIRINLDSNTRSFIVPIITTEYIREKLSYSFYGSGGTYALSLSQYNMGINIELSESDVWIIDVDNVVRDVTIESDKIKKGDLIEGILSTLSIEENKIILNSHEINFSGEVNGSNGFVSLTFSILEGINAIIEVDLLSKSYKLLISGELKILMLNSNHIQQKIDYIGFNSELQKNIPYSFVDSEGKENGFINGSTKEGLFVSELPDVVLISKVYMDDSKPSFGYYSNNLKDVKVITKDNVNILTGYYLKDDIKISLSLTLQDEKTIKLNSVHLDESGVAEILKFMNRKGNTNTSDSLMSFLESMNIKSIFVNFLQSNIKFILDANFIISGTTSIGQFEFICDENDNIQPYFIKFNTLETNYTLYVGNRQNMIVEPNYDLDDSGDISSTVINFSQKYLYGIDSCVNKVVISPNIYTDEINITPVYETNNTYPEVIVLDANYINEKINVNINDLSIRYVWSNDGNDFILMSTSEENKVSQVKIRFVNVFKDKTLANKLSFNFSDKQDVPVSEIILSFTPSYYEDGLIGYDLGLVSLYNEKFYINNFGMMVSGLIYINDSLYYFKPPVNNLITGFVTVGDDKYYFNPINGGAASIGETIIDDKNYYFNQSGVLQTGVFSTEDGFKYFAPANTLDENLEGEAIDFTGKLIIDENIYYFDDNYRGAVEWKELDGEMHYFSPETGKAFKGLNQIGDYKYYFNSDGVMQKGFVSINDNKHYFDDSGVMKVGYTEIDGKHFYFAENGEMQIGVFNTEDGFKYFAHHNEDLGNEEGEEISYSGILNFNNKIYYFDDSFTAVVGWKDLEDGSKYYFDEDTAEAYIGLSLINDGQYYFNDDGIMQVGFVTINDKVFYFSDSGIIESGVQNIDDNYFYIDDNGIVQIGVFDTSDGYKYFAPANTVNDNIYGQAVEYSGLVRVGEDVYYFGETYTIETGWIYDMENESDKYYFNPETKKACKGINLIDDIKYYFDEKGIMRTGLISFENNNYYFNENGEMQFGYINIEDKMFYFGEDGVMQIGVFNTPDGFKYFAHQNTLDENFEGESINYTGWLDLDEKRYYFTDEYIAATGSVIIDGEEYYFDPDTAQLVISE

For `CC(C)[C@H](NC(=O)[C@H](CCCCN)NC(=O)[C@H](CCCNC(=N)N)NC(=O)[C@H](CCCCN)NC(=O)[C@H](CCCCN)NC(=O)[C@H](CCCCN)NC(=O)[C@@H]1CCCN1C(=O)[C@H](CCC(N)=O)NC(=O)[C@H](CO)NC(=O)[C@H](Cc1c[nH]c2ccccc12)NC(=O)[C@H](CCC(=O)O)NC(=O)[C@@H](NC(=O)[C@H](Cc1c[nH]c2ccccc12)NC(=O)[C@H](Cc1c[nH]c2ccccc12)NC(=O)[C@@H](NC(=O)[C@H](CCC(=O)O)NC(=O)[C@H](Cc1c[nH]c2ccccc12)NC(=O)[C@H](Cc1c[nH]c2ccccc12)NC(=O)[C@@H](NC(=O)[C@H](CCC(=O)O)NC(=O)[C@@H](N)CCCCN)[C@@H](C)O)[C@@H](C)O)[C@@H](C)O)C(=O)O` [Pep-1, reference compound] (H-KETWWETWWTEWSQPKKKRKV-OH), the “effect of known CPPs on the cytotoxicity of TcdB” value (“effect of known CPPs” for short) (TcdB [1]) was “did not appear to alter TcdB cytotoxicity”.

For `CC(C)C[C@H](NC(=O)[C@H](CCCCN)NC(=O)[C@H](CC(N)=O)NC(=O)[C@H](C)NC(=O)[C@H](CC(C)C)NC(=O)[C@@H](NC(=O)[C@H](CCCCN)NC(=O)[C@H](CC(=O)O)NC(=O)[C@H](CCCCN)NC(=O)[C@H](Cc1ccccc1)NC(=O)[C@@H](NC(=O)[C@@H](N)CC(N)=O)C(C)C)[C@@H](C)O)C(=O)N[C@@H](CO)C(=O)N[C@@H](Cc1ccccc1)C(=O)N[C@@H](CC(N)=O)C(=O)N[C@@H](Cc1ccccc1)C(=O)N[C@@H](CO)C(=O)N[C@@H](CC(=O)O)C(=O)N[C@@H](CCCCN)C(=O)O` [PepB1] (H-NVFKDKTLANKLSFNFSDK-OH), the “protection from cytotoxicity of TcdB2 over a range of toxin concentrations” value (TcdB2) was “did not inhibit the cytotoxicity” and the “protection from cytotoxicity of TcdB1 over a range of toxin concentrations” value (TcdB1) was “did not inhibit the cytotoxicity”.

For `CC[C@H](C)[C@H](NC(=O)[C@H](CCCCN)NC(=O)[C@H](CC(=O)O)NC(=O)[C@H](CO)NC(=O)[C@@H](NC(=O)[C@@H](NC(=O)[C@H](CC(N)=O)NC(=O)CNC(=O)[C@H](CCCCN)NC(=O)[C@H](Cc1ccccc1)NC(=O)[C@@H](NC(=O)[C@@H](N)CC(N)=O)C(C)C)[C@@H](C)O)[C@@H](C)CC)C(=O)N[C@@H](CO)C(=O)N[C@@H](Cc1ccccc1)C(=O)N[C@@H](CC(N)=O)C(=O)N[C@@H](Cc1ccccc1)C(=O)N[C@@H](CO)C(=O)N[C@@H](CC(=O)O)C(=O)N[C@@H](CCCCN)C(=O)O` [PepB2], the “increase of the 50% toxic concentration (TC50) of TcdB2” value (TcdB2) was 200 fold, the “protection from cytotoxicity of TcdB2 over a range of toxin concentrations” value (TcdB2) was “protects CHO-K1 cells” and the “impact on TcdB cytotoxicity, PepB2 alone at 25 μM” value (TcdB [1]) was “minimal impact”. For the same compound, the “inhibition of TcdB cytotoxicity, PepB2 combined with methyl cholate” value (TcdB [1]) was “strong inhibition”.

With `N=C(N)NCCC[C@H](NC(=O)CN)C(=O)N[C@@H](CCCCN)C(=O)N[C@@H](CCCCN)C(=O)N[C@@H](CCCNC(=N)N)C(=O)N[C@@H](CCCNC(=N)N)C(=O)N[C@@H](CCC(N)=O)C(=O)N[C@@H](CCCNC(=N)N)C(=O)N[C@@H](CCCNC(=N)N)C(=O)N[C@@H](CCCNC(=N)N)C(=O)N1CCC[C@H]1C(=O)N1CCC[C@H]1C(=O)N[C@@H](CCC(N)=O)C(=O)O` [TAT, reference compound] the “effect of known CPPs” value (TcdB [1]) was “did not appear to alter TcdB cytotoxicity”.

With `CC[C@H](C)[C@H](NC(=O)[C@H](CCCCN)NC(=O)[C@H](CCCCN)NC(=O)[C@H](C)NC(=O)[C@H](CC(C)C)NC(=O)[C@H](C)NC(=O)[C@H](C)NC(=O)[C@H](CC(C)C)NC(=O)[C@H](C)NC(=O)[C@H](CCCCN)NC(=O)[C@H](CC(C)C)NC(=O)[C@H](CC(N)=O)NC(=O)[C@@H](NC(=O)[C@H](CCCCN)NC(=O)CNC(=O)[C@H](CC(C)C)NC(=O)[C@H](CC(C)C)NC(=O)[C@H](Cc1ccc(O)cc1)NC(=O)CNC(=O)[C@H](C)N)[C@@H](C)CC)C(=O)N[C@@H](CC(C)C)C(=O)O` [transportan 10, reference compound] the “effect of known CPPs” value (TcdB [1]) was “did not appear to alter TcdB cytotoxicity”.

For DKFSNSNKDKISFGNVTFI [Scramble 9], the “Anti-TcdB activity of scrambled PepB2 peptides” value (“Anti-TcdB activity” for short) (TcdB [1]) was “found to have inhibitory activity”.

With FKDNNSIIFDVKGTNFSSK [Scramble 8] the “Anti-TcdB activity” value (TcdB [1]) was “found to have inhibitory activity”.

For KPPIKNLITGFTTIGDDKYYF [Peptide 9], the “inhibitory activity against TcdB2 (percent of viable cells)” value (TcdB2) was “weaker inhibitory activity” and the “inhibitory activity against TcdB1 (percent of viable cells)” value (TcdB1) was “weaker inhibitory activity”.

In the case of NVFKGKTISDKISFNFSDK [PepB2-N6K], the “cell penetrating activities of mutant peptides” value (shortened to “cell penetrating activities”) (CHO-K1 cells) is reported as “cell penetrating activities were reduced”.

For NVFKGNTLANKLSFNFSDK [PepB1-DK5-6GN], the “cell penetrating activities” value (CHO-K1 cells) was “cell penetrating activities were gained”.

With NVFKSNTISDKISFNFSDK [PepB2-G5S] the “cell penetrating activities” value (CHO-K1 cells) was “Cell penetrating activities also remained”, the “dextran delivery compared with PepB2” value (CHO-K1 cells) was “this is not the case for dextran delivery” and the “transport of dsRNA into cells compared with PepB2” value (CHO-K1 cells) was “more efficiently transports dsRNA into cells than PepB2”.

In the case of SFNKMSIDFKDIKKLSLGYIMS [TcdA 1774-1795], the “TcdB inhibitory activity?” value (TcdB [1]) is reported as “YES”, the “dose dependence of inhibition of TcdB” value (TcdB [1]) is reported as “Dose-dependent inhibition” and the “inhibitory activity against TcdB toxin” value (TcdB [1]) is reported as “found to have inhibitory activity against TcdB toxin”.

In the case of SNKNFSGIVFTNFDIDKSK [Scramble 12], the “Anti-TcdB activity” value (TcdB [1]) is reported as “found to have inhibitory activity”.

In the case of methyl cholate [reference compound], the “impact on TcdB cytotoxicity, methyl cholate alone” value (TcdB [1]) is listed as “minimal impact” and the “effect on the thermal stability of TcdB” value (TcdB [2]) is listed as “increase the thermal stability of TcdB”.
